Results from ChEMBL document CHEMBL1201862, “PubChem BioAssay data set” (2004).
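Method: 48-hour compound exposure of cells in 96-well plates, five concentrations, linear interpolation of endpoints. The concentration for 50% growth inhibition is given as GI50.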 Calls of active or inactive are those of the source. Cut-off read from the data, not from the text of the source: active = GI50 up to about 1.1 µM and inactive = higher.

How the values were obtained:
Assay in all cases: NCI-60 cell line screen, 48 h
SNB-75 = system: SNB-75
NCI-H23 = system: NCI-H23
HT-29 = system: HT-29
CAKI-1 = system: CAKI-1
MOLT-4 = system: MOLT-4
UACC-62 = system: UACC-62
A498 = system: A498
IGROV-1 = system: IGROV-1
HOP-92 = system: HOP-92
RXF 393 = system: RXF 393
SF-539 = system: SF-539
HOP-62 = system: HOP-62
HOP-18 = system: HOP-18
LOX IMVI = system: LOX IMVI
KM12 = system: KM12
SR = system: SR
SK-MEL-2 = system: SK-MEL-2
SW-620 = system: SW-620
CCRF-CEM = system: CCRF-CEM
DMS-114 = system: DMS-114
NCI-H522 = system: NCI-H522
SF-268 = system: SF-268
LXFL 529 = system: LXFL 529
U-251 = system: U-251
RPMI-8226 = system: RPMI-8226
UACC-257 = system: UACC-257
K562 = system: K562
NCI-H226 = system: NCI-H226
HCT-116 = system: HCT-116
COLO 205 = system: COLO 205
SK-MEL-5 = system: SK-MEL-5
SN12C = system: SN12C
SF-295 = system: SF-295
HL-60 = system: HL-60
DMS-273 = system: DMS-273
OVCAR-4 = system: OVCAR-4
DLD-1 = system: DLD-1
HCT-15 = system: HCT-15
OVCAR-5 = system: OVCAR-5
A549 = system: A549
ACHN = system: ACHN
UO-31 = system: UO-31
M19-MEL = system: M19-MEL
OVCAR-8 = system: OVCAR-8
SK-OV-3 = system: SK-OV-3
M14 = system: M14
NCI-H460 = system: NCI-H460
TK-10 = system: TK-10
Malme-3M = system: Malme-3M
786-0 = system: 786-0
HCC 2998 = system: HCC 2998
EKVX = system: EKVX
OVCAR-3 = system: OVCAR-3
SNB-19 = system: SNB-19
SK-MEL-28 = system: SK-MEL-28

**Q.** What does the source list for `COc1ccc(C2S/C(=C\c3ccc(OC)cc3OC)C(=O)N2NC(=O)Cc2ccccc2)cc1` (stereo not given)?
**A.** GI50 (SNB-75): > 100 µM (inactive); GI50 (NCI-H23): > 100 µM (inactive); GI50 (HT-29): > 100 µM (inactive); GI50 (CAKI-1): > 100 µM (inactive); GI50 (MOLT-4): > 100 µM (inactive); GI50 (UACC-62): > 100 µM (inactive); GI50 (A498): > 100 µM (inactive); GI50 (IGROV-1): > 100 µM (inactive); GI50 (HOP-92): > 100 µM (inactive); GI50 (RXF 393): > 100 µM (inactive); GI50 (SF-539): > 100 µM (inactive); GI50 (HOP-62): > 100 µM (inactive); GI50 (HOP-18): > 100 µM (inactive); GI50 (LOX IMVI): > 100 µM (inactive); GI50 (KM12): > 100 µM (inactive); GI50 (SR): > 100 µM (inactive); GI50 (SK-MEL-2): > 100 µM (inactive); GI50 (SW-620): > 100 µM (inactive); GI50 (CCRF-CEM): 89.5 µM (inactive); GI50 (DMS-114): > 100 µM (inactive); GI50 (NCI-H522): > 100 µM (inactive); GI50 (SF-268): > 100 µM (inactive); GI50 (LXFL 529): > 100 µM (inactive); GI50 (U-251): > 100 µM (inactive); GI50 (RPMI-8226): > 100 µM (inactive); GI50 (UACC-257): > 100 µM (inactive); GI50 (K562): 98.9 µM (inactive); GI50 (NCI-H226): > 100 µM (inactive); GI50 (HCT-116): > 100 µM (inactive); GI50 (COLO 205): > 100 µM (inactive); GI50 (SK-MEL-5): > 100 µM (inactive); GI50 (SN12C): > 100 µM (inactive); GI50 (SF-295): > 100 µM (inactive); GI50 (HL-60): 97.9 µM (inactive); GI50 (DMS-273): > 100 µM (inactive); GI50 (OVCAR-4): > 100 µM (inactive); GI50 (DLD-1): > 100 µM (inactive); GI50 (HCT-15): > 100 µM; GI50 (OVCAR-5): > 100 µM (inactive); GI50 (A549): > 100 µM (inactive); GI50 (ACHN): > 100 µM (inactive); GI50 (UO-31): > 100 µM (inactive); GI50 (M19-MEL): > 100 µM (inactive); GI50 (OVCAR-8): > 100 µM (inactive); GI50 (SK-OV-3): > 100 µM (inactive); GI50 (M14): > 100 µM (inactive); GI50 (NCI-H460): > 100 µM (inactive); GI50 (TK-10): > 100 µM (inactive); GI50 (Malme-3M): > 100 µM (inactive); GI50 (786-0): > 100 µM (inactive)

**Q.** `O=C1NC(=S)S/C1=C/c1ccco1` was tested. Which GI50 (SNB-75) did it give?
**A.** The GI50 was > 100 µM (inactive).

**Q.** And the GI50 (NCI-H23)?
**A.** The GI50 was > 100 µM (inactive).

**Q.** What about the GI50 (HT-29) of the same compound?
**A.** The GI50 was > 100 µM (inactive).

**Q.** And the GI50 (CAKI-1)?
**A.** The GI50 was > 100 µM (inactive).

**Q.** And the GI50 (UACC-62)?
**A.** Its GI50 is > 100 µM (inactive).

**Q.** And the GI50 (A498)?
**A.** The GI50 was 11.1 µM (inactive).

**Q.** And the GI50 (HCC 2998)?
**A.** The GI50 was > 100 µM (inactive).

**Q.** What about the GI50 (IGROV-1) of the same compound?
**A.** The GI50 was > 100 µM (inactive).

**Q.** What about the GI50 (HOP-92) of the same compound?
**A.** The GI50 was 49.4 µM (inactive).

**Q.** What about the GI50 (RXF 393) of the same compound?
**A.** Its GI50 is > 100 µM (inactive).

**Q.** What about the GI50 (SF-539) of the same compound?
**A.** Its GI50 is > 100 µM (inactive).

**Q.** And the GI50 (EKVX)?
**A.** The GI50 was > 100 µM (inactive).

**Q.** What about the GI50 (LOX IMVI) of the same compound?
**A.** The GI50 was > 100 µM (inactive).

**Q.** What about the GI50 (SW-620) of the same compound?
**A.** The GI50 was > 100 µM (inactive).

**Q.** And the GI50 (DMS-114)?
**A.** The GI50 was > 100 µM (inactive).

**Q.** And the GI50 (SF-268)?
**A.** The GI50 was > 100 µM (inactive).

**Q.** What about the GI50 (LXFL 529) of the same compound?
**A.** The GI50 was > 100 µM (inactive).

**Q.** And the GI50 (UACC-257)?
**A.** Its GI50 is 46.3 µM (inactive).

**Q.** And the GI50 (NCI-H226)?
**A.** The GI50 was > 100 µM (inactive).

**Q.** What about the GI50 (HCT-116) of the same compound?
**A.** Its GI50 is > 100 µM (inactive).

**Q.** What about the GI50 (COLO 205) of the same compound?
**A.** The GI50 was > 100 µM (inactive).

**Q.** What about the GI50 (SK-MEL-5) of the same compound?
**A.** Its GI50 is > 100 µM (inactive).

**Q.** What about the GI50 (SN12C) of the same compound?
**A.** The GI50 was > 100 µM (inactive).

**Q.** And the GI50 (SF-295)?
**A.** The GI50 was > 100 µM (inactive).

**Q.** And the GI50 (DMS-273)?
**A.** The GI50 was > 100 µM (inactive).

**Q.** What about the GI50 (OVCAR-3) of the same compound?
**A.** Its GI50 is 50.1 µM (inactive).

**Q.** And the GI50 (OVCAR-4)?
**A.** The GI50 was > 100 µM (inactive).

**Q.** What about the GI50 (DLD-1) of the same compound?
**A.** The GI50 was > 100 µM (inactive).

**Q.** And the GI50 (SNB-19)?
**A.** The GI50 was > 100 µM (inactive).

**Q.** And the GI50 (HCT-15)?
**A.** The GI50 was > 100 µM.

**Q.** And the GI50 (OVCAR-5)?
**A.** The GI50 was > 100 µM (inactive).

**Q.** What about the GI50 (A549) of the same compound?
**A.** The GI50 was > 100 µM (inactive).

**Q.** And the GI50 (ACHN)?
**A.** The GI50 was > 100 µM (inactive).

**Q.** What about the GI50 (UO-31) of the same compound?
**A.** The GI50 was > 100 µM (inactive).

**Q.** And the GI50 (OVCAR-8)?
**A.** The GI50 was > 100 µM (inactive).

**Q.** And the GI50 (SK-OV-3)?
**A.** The GI50 was > 100 µM (inactive).

**Q.** What about the GI50 (M14) of the same compound?
**A.** Its GI50 is > 100 µM (inactive).

**Q.** And the GI50 (NCI-H460)?
**A.** The GI50 was > 100 µM (inactive).

**Q.** And the GI50 (TK-10)?
**A.** The GI50 was > 100 µM (inactive).

**Q.** What about the GI50 (SK-MEL-28) of the same compound?
**A.** The GI50 was > 100 µM (inactive).
